Where two headings read alike, the source gives them in different places.
Assays:
[1] = tested on: SDMA in HCT116-MTAP-knockout cell line; test: Cell symmetric dimethylarginine (SDMA) test, In-cell Western, HCT116-MTAP-knockout; format: cell-based; settings: Homo sapiens, 96 h
[2] = molecular target: MAT2A recombinant protein (Homo sapiens, UniProt P31153); test: MAT2A inhibitory activity (malachite green colorimetric enzyme assay); format: biochemical
In short: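 Recombinant human MAT2A with L-methionine and ATP in 50 mM HEPES pH 7.5, 50 mM KCl, 10 mM MgCl2, 10 mM DTT, 60 min at room temperature. Phosphate released detected by malachite green reagent (15 min) at 630 nm. Ten-point 1:3 series from 1000 nM final; IC50 by variable-slope non-linear regression.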

[3] = tested on: DOHH-2 cell strain; test: Tumor cell proliferation inhibition assay (CellTiter-Glo), DOHH-2; format: cell-based; settings: Homo sapiens, 120 h, DOHH-2 cells, 5-day treatment
Description: (§1) After the HCT116-MTAP-knockout (−/−) cell strain, the HCT116-MTAP wild-type(+/+)-cell strain, the DOHH-2 cell strain, or the Hut-78 cell strain was treated with the test compound for 5 days, the ATP level was measured using a CellTiter-Glo kit of Promega to evaluate the inhibition of the test compound against the growth of the tumor cell strain.
(§2) In the present application, the HCT116-MTAP-knockout (−/−) cell strain, the HCT116-MTAP wild-type (+/+)-cell strain, the DOHH-2 cell strain, or the Hut-78 cell strain was seeded into a 96-well cell culture plate at an appropriate cell density. After 24 h, the cells were treated using the test compounds diluted 1:3 fold at the highest concentration of 10 μM for 10 gradients, and a DMSO treatment group was set up separately. The cells were cultured in a 37° C./5% CO2 incubator for 5 days.

[4] = tested on: SDMA in human colon cancer cell line HCT116; test: Cell symmetric dimethylarginine (SDMA) test, In-cell Western, HCT116 (MTAP wild-type); format: cell-based; settings: Homo sapiens, HCT-116, 96 h
In short: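 HCT116 cells treated 4 days at 37° C with compound, top concentration 6 μM, 1:4 dilutions, 6 points, versus DMSO. Fixed cells stained for SDMA with DRAQ5 normalisation; 800/700 nm ratio after background subtraction fitted by non-linear regression for IC50.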

[5] = tested on: HCT116-MTAP wild-type (+/+)-cell strain; test: Tumor cell proliferation inhibition assay (CellTiter-Glo), HCT116-MTAP wild-type (+/+); format: cell-based; settings: Homo sapiens, 120 h, HCT116-MTAP wild-type (+/+) cells, 5-day treatment
In short: (§3)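 Read-out: CellTiter-Glo ATP luminescence after 5-day compound exposure at 37° C./5% CO2. Dosing began 24 h post-seeding, 10 μM top, 1:3 dilutions, 10 points; DMSO-treated cells as reference.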

[6] = tested on: Hut-78 cell strain; test: Tumor cell proliferation inhibition assay (CellTiter-Glo), Hut-78; format: cell-based; settings: Homo sapiens, HuT78, 120 h, Hut-78 cells, 5-day treatment
Description: as §1, §2

[7] = tested on: HCT116-MTAP-knockout (−/−) cell strain; test: Tumor cell proliferation inhibition assay (CellTiter-Glo), HCT116-MTAP-knockout (-/-); format: cell-based; settings: Homo sapiens, 120 h, HCT116-MTAP-knockout (−/−) cells, 5-day treatment
In short: as §3

[8] = Pharmacokinetic test in mice (IV and PO); format: in vivo; settings: mouse, plasma, BALB/c mice; for half-life: read-out: T½ (converted)
[9] = IC50 score class, read-out: Cell 96 h SDMA Inhibition (HCT116-MTAP−/−) (score)
[10] = read-out: Cell 96 h SDMA Inhibition (HCT116-MTAP−/−)
[11] = IC50 score class, read-out: MAT2A Inhibition (score)
[12] = IC50 score, read-out: Tumor cell 5-day relative growth inhibition (DOHH-2) (nM), score
[13] = IC50 value, read-out: Tumor cell 5-day relative growth inhibition (DOHH-2)
[14] = IC50 score class, read-out: Cell 96 h SDMA Inhibition (HCT116-MTAP+/+) (score)
[15] = IC50 score, read-out: Tumor cell 5-day relative growth inhibition (HCT116-MTAP+/+) (nM), score
[16] = IC50 value, read-out: Tumor cell 5-day relative growth inhibition (HCT116-MTAP+/+)
[17] = read-out: Cell 96 h SDMA inhibition (HCT116-MTAP+/+)
[18] = IC50 score, read-out: Tumor cell 5-day relative growth inhibition (Hut-78) (nM), score
[19] = IC50 value, read-out: Tumor cell 5-day relative growth inhibition (Hut-78)
[20] = IC50 score, read-out: Tumor cell 5-day relative growth inhibition (HCT116-MTAP−/−) (nM), score
[21] = IC50 value, read-out: Tumor cell 5-day relative growth inhibition (HCT116-MTAP−/−)

MAT2A recombinant protein, sequence (P31153 whole entry): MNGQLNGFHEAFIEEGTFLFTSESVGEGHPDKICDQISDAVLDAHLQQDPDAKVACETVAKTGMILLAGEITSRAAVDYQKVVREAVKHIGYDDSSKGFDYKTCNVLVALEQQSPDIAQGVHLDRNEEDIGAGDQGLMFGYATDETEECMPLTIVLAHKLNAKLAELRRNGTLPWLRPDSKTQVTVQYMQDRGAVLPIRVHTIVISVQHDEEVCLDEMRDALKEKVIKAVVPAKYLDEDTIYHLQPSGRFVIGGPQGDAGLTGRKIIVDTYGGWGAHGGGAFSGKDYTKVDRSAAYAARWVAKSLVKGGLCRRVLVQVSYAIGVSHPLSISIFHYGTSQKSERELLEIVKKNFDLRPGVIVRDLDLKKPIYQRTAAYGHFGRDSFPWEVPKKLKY

Compound | IC50 [1, 9] [nM] | IC50 [1, 10] [nM] | IC50 [2, 11] [nM] | IC50 ([2]; read-out: MAT2A Inhibition) [nM] | IC50 [3, 12] [nM] | IC50 [3, 13] [nM] | IC50 [4, 14] [nM] | IC50 [5, 15] [nM] | IC50 [5, 16] [nM] | IC50 [4, 17] [nM] | IC50 [6, 18] [nM] | IC50 [6, 19] [nM] | IC50 [7, 20] [nM] | IC50 [7, 21] [nM] | other results
CCn1cc2c(n1)c(=O)n(Cc1c[nH]cn1)c1cc(Cl)ccc21 [Compound B18] | > 3000 | 8410 | 100 to 1000 | 149 | ≥ 2000 | > 2000 | – | – | – | – | – | – | – | – | –
CCn1cc2c(n1)c(=O)n(-c1cnccn1)c1cc(Cl)ccc21 [Compound B6] | > 3000 | 3570 | – | – | ≥ 2000 | 16900 | 200 to 1000 | – | – | – | – | – | – | – | –
Cc1ncccc1-n1c(=O)c2[nH]ncc2c2ccc(OC(F)(F)F)cc21 [Compound B101] | < 200 | 48.7 | < 100 | 59.7 | – | – | > 3000 | ≥ 2000 | > 2000 | > 3000 | < 500 | 50.4 | – | – | –
CCn1cc2c(n1)c(=O)n(-c1cccc(O)c1)c1cc(Cl)ccc21 [Compound B8] | 200 to 1000 | 271 | – | – | 500 to 2000 | 1000 | 1000 to 3000 | – | – | 2100 | – | – | – | – | –
Cc1c2c(nn1C)c(=O)n(-c1cccnc1)c1nc(C(F)(F)F)ccc21 [Compound B198] | < 200 | 48.5 | < 100 | 17.1 | – | – | 200 to 1000 | 500 to 2000 | 745 | 567 | < 500 | 40.2 | < 500 | 31.5 | AUC ([8]; IV 2 mg/kg): 8.7 µM·h; clearance ([8]; IV 2 mg/kg): 10.7 mL/min/kg; bioavailability ([8]; IV 2 mg/kg, PO 10 mg/kg): 150%; half-life ([8]; IV 2 mg/kg): 40.9 min; Vd ([8]; IV 2 mg/kg, read-out: Vz): 0.6 L/kg; AUC ([8]; PO 10 mg/kg): 65.2 µM·h; half-life ([8]; PO 10 mg/kg): 55.1 min
NC(=O)CC1N=c2c(c3ccc(Cl)cc3n(-c3cccnc3)c2=O)=N1 (stereo not shown) [Compound B36] | 1000 to 3000 | 2730 | < 100 | 55.2 | – | – | < 200 | ≥ 2000 | > 2000 | 24.7 | ≥ 2000 | > 2000 | – | – | –
O=c1c2nn(C(F)F)cc2c2ccc(Cl)cc2n1-c1cccnc1 [Compound B55] | < 200 | 118 | < 100 | 18 | – | – | 1000 to 3000 | ≥ 2000 | 3570 | 1520 | < 500 | 83 | < 500 | 104 | –

Further lines, with some results ahead:

IC50 [1, 9] [nM] | IC50 [1, 10] [nM] | IC50 [2, 11] [nM] | IC50 ([2]; read-out: MAT2A Inhibition) [nM] | IC50 [3, 12] [nM] | IC50 [3, 13] [nM] | IC50 [4, 14] [nM] | IC50 [5, 15] [nM] | IC50 [5, 16] [nM] | IC50 [4, 17] [nM] | IC50 [6, 18] [nM] | IC50 [6, 19] [nM] | IC50 [7, 20] [nM] | IC50 [7, 21] [nM] | Compound | other results
< 200 | 184 | < 100 | 53.7 | – | – | 200 to 1000 | ≥ 2000 | 53800 | 899 | < 500 | 323 | < 500 | 181 | O=c1c2nn(CC3CC3)cc2c2ccc(C(F)(F)F)nc2n1-c1cccnc1 [Compound B199] | –
< 200 | 16.5 | < 100 | 30.9 | – | – | 200 to 1000 | 500 to 2000 | 1030 | 919 | < 500 | 27.7 | – | – | Cc1ncccc1-n1c(=O)c2nn(C3CC3)cc2c2ccc(Cl)cc21 [Compound B226] | –
1000 to 3000 | 2910 | < 100 | 37.3 | – | – | > 3000 | ≥ 2000 | > 2000 | 3220 | ≥ 2000 | 3450 | – | – | Cn1cc2c(n1)c(=O)n(-c1ccc(F)c(O)c1)c1nc(C(F)(F)F)ccc21 [Compound B228] | –

Reference: patent publication US20240391923A1, “METHIONINE ADENOSYLTRANSFERASE 2A INHIBITOR FOR TREATING MTAP DELETION-TYPE CANCER” (SUZHOU GENHOUSE BIO CO., LTD., priority 2022, published 2024)
